Several values for one entry are separate records, joined by “and”; a condition that tells them apart may be missing. Equal values may be shown once.
Legend:
Format in all cases: cell-based, human
[1] = tested on: HCT116 cells; assay: Annexin V / PI staining; details: 48 hours, from 3.6%
Procedure: Cells were cultured for 48 hours under the same conditions as those used for the DNA content/cell cycle analysis. All the cells were collected and resuspended in 100 μl 1× Annexin V Binding Buffer (BD Biosciences, San Jose, Calif., USA). 2 μl FITC-Annexin V (BD Biosciences) was added and incubated for 10 min in the dark (room temperature). Cells were then stained with PI (Sigma, Saint Louis, Mo., USA) to a final concentration of 5 μg/ml and the cells were incubated at room temperature for 15 min in the dark. Then, 400 μl of Annexin V binding buffer were added and flow cytometry was performed using a BD FACSCalibur flow cytometer. Cells were considered to be apoptotic if they were Annexin V+/PI− (early apoptotic) and Annexin V+/PI+ (late apoptotic). Each analysis was performed using at least 20,000 events.
Chromosome condensation at mitosis is accompanied by phosphorylation of histone H3. Accordingly, in order to determine if cells were arresting at G2 or M phase, HCT116 cells were analyzed for pS10 Histone H3 following strigolactone analogs exposure. […] To further quantify whether the growth inhibition observed in-vitro following strigolactone treatment was due in part to apoptosis, HCT116 cells were dual stained with Annexin V and PI (Prodidium Iodide). Annexin V staining indicate the inversion of the inner leaflet of the plasma membrane an early event of apoptosis. Late apoptosis is characterized by loss of membrane integrity and cells become permeable to PI. […] Cells were incubated for 48 hours and then co-stained with annexin-V and PI (FIG. 12F). Following treatment with 10 ppm and 15 ppm MEB-55, the percentage of late apoptotic cell increased from 3.6% to 62% and 85% respectively (FIG. 12F, lower panel). […] Dual Annexin V/PI staining analysis was also carried out on two other colon cancer cell lines, (SW480, HT29) following strigolactone treatment. Increased apoptosis was also observed in these lines following MEB-55 treatment in a dose dependent manner (FIG. 12D).

[2] = tested on: pERK1/2; assay: Immunoblot with densitometric quantification; details: DU145, after 1 hour
Procedure: (§1) Protein concentration was determined using the BCA Protein Assay (Pierce), and 20-50 μg of lysate were separated in a 4-12% SDS-PAGE gel. After transfer, membranes were blocked for 15-30 min at room temperature in 5% BSA (Sigma) in Tris-buffered saline containing 0.1% Tween-20. Primary antibody was incubated for either 1.5 hours at room temperature or overnight at 4° C. Secondary antibody was incubated for 30-45 min at room temperature, and proteins were visualized with West Pico Stable (Pierce). All antibodies were used at 1:1000 dilution unless otherwise stated. pT308AKT, AKT, pT180/Y182, pT183/Y185 P38MAPK, pP38MAPK, pT202/Y204 pERK1/2, ERK1, pT183/Y185, pJNK1/2, JNK1, pT71ATF2, pT581MSK1, pT14 Cdc2, Cdc2, pT68Chk2 (cell signaling), pT334MAPKAPK, pS82HSP27 (Cell Signaling Technology, Danvers, Mass.), α-tubulin (Biomarkers, 1:50,000), Cyclin B1 (Santa Cruz Biotechnologies) and horseradish peroxidase-conjugated anti-rabbit IgG and anti-mouse IgG (1:5,000, Pierce).
(§2) Densitometric quantifications were carried out using ImageJ software (NIMH).
(§3) To investigate the signaling mechanisms elicited by strigolactone analogs in cancer cells, MDA-MB-231, DU145 and HCT116 cells were treated with strigolactone analogs for 1, 4 or 8 hours and lysates were analyzed by immuno-blotting. The family of MAPK enzymes plays a pivotal role in cell growth, survival and cellular stress responses. The best characterized MAPKs fall into three families: (i) the mitogen activated extracellular signal regulated kinases (ERK1/2) which are activated in response to positive proliferation signals, (ii) c-Jun amino (N)-terminal kinases (JNK1/2/3) and (iii) p38 isoforms (p38α, β, γ, δ), all are activated by environmental stress stimuli such as DNA damage, UV irradiation and inflammatory cytokines.

[3] = tested on: JNK1/2 phosphorylation; assay: Immunoblot with densitometric quantification
Procedure: as §1, §2, §3

[4] = tested on: pP38; assay: Immunoblot with densitometric quantification
Procedure: Protein concentration was determined using the BCA Protein Assay (Pierce), and 20-50 μg of lysate were separated in a 4-12% SDS-PAGE gel. After transfer, membranes were blocked for 15-30 min at room temperature in 5% BSA (Sigma) in Tris-buffered saline containing 0.1% Tween-20. Primary antibody was incubated for either 1.5 hours at room temperature or overnight at 4° C. Secondary antibody was incubated for 30-45 min at room temperature, and proteins were visualized with West Pico Stable (Pierce). […]
as §2
To investigate the signaling mechanisms elicited by strigolactone analogs in cancer cells, MDA-MB-231, DU145 and HCT116 cells were treated with strigolactone analogs for 1, 4 or 8 hours and lysates were analyzed by immuno-blotting. […]
Immunoblot analysis of MDA-MB-231 and HCT116 cells treated with strigolactone analogs was performed. […] At 4 hours and 8 hours, pP38 levels increased 5 fold and 13 fold respectively following ST-362 treatment compared to vehicle controls (FIG. 13B—a bar graph showing densitometric quantification of pP38 levels as shown in FIG. 13A). […]

[5] = tested on: MDA-MB-231 cells; assay: Hoechst 33342 staining; details: 48 hours
Procedure: MDA-MB-231 cells were seeded out into 96 well plates in triplicate at 3000 cell per well. […] After 48 hours, the medium was aspirated off and 100 μl of Hoechst dye (2 μg/ml), diluted with the medium, was added to the cells and incubated for 15 minutes. Stained cells were observed under a fluorescence microscope (Zeiss 5 Instruments, Thornwood, N.Y.).

| SMILES | Percentage of late apoptotic cells (Annexin V+/PI+) ([1]; 10 ppm) [%] | Percentage of late apoptotic cells (Annexin V+/PI+) ([1]; 15 ppm) [%] | pERK1/2 levels reduction [2] [fold] | JNK1/2 phosphorylation increase ([3]; DU145, 4 hours) [fold] | Decrease of JNK1/2 phosphorylation from the 4 hours level ([3]; DU145, 8 hours) [%] | pP38 levels increase compared to vehicle controls ([4]; MDA-MB-231, 4 hours) [fold] | pP38 levels increase compared to vehicle controls ([4]; MDA-MB-231, 8 hours) [fold] | Concentrations resulting in increased nuclear condensation and fragmentation (indicative of apoptosis) [5] |
| --- | --- | --- | --- | --- | --- | --- | --- | --- |
| CC1=CC(O/C=C2\Cc3c(n(C)c4cc(-c5cccs5)ccc34)C2=O)OC1=O (racemic) [MEB-55, (±) 2E-4-methyl-2-(4-methyl-5-oxo-2,5-dihydrofuran-2-yloxymethylene)-6-thiophen-2-yl-1,4-dihydro-2H-cyclopenta[b]indol-3-one] | 62 | 85 | 4 | 15 | 50 | – | – | – |
| CC1=CC(O/C=C2/C(=O)c3c(c4cc(-c5scc6c5OCCO6)ccc4n3C)C2C)OC1=O (centres unmarked) [ST-362, (2E)-2-[(2,5-dihydro-4-methyl-5-oxofuran-2-yloxy)methylene]-1,2-dihydro-7-(2,3-dihydrothieno[3,4-b][1,4]dioxin-7-yl)-1,4-dimethyl-cyclopenta[b]indole-3-(4H)-one] | – | – | – | – | – | 5 | 13 | 10-15 ppm and 5-10 ppm |

From patent publication US10208007B2, “Use of strigolactones and strigolactone analogs for treating proliferative conditions” (The State of Israel, Ministry of Agriculture & Rural …, priority 2011, dated 2019)
